Data from the supplement of paper PMC11451515.

Test system: NOMO1
Assay: cell viability relative to DMSO control; higher = less cytotoxic
Settings: 48 h
How it was run: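 Viability values are per-plate percentages of DMSO wells, with background from cell-free wells. Library compounds in DMSO were pin-dosed, in an 11-point threefold series from 47 μM to 0.79 nM, onto NOMO1 or SEM (500 cells/well) or P12-Ichikawa (1000 cells/well) leukemia cells in 1536-well plates (5 μl). Those cells had been adapted for at least four passages in each medium, and CellTiter-Glo One luminescence was read after 48 h at 37°C.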

[1] = HPLM + 10% dialyzed FBS, 0.000781 µM
[2] = HPLM + 10% dialyzed FBS, 0.00234 µM
[3] = HPLM + 10% dialyzed FBS, 0.00702 µM
[4] = HPLM + 10% dialyzed FBS, 0.0211 µM
[5] = HPLM + 10% dialyzed FBS, 0.0632 µM
[6] = HPLM + 10% dialyzed FBS, 0.19 µM
[7] = HPLM + 10% dialyzed FBS, 0.569 µM
[8] = HPLM + 10% dialyzed FBS, 1.71 µM
[9] = HPLM + 10% dialyzed FBS, 5.12 µM
[10] = HPLM + 10% dialyzed FBS, 15.4 µM
[11] = HPLM + 10% dialyzed FBS, 46.1 µM
[12] = RPMI 5 mM glucose + 10% FBS, 0.000781 µM
[13] = RPMI 5 mM glucose + 10% FBS, 0.00234 µM
[14] = RPMI 5 mM glucose + 10% FBS, 0.00702 µM
[15] = RPMI 5 mM glucose + 10% FBS, 0.0211 µM
[16] = RPMI 5 mM glucose + 10% FBS, 0.0632 µM
[17] = RPMI 5 mM glucose + 10% FBS, 0.19 µM
[18] = RPMI 5 mM glucose + 10% FBS, 0.569 µM
[19] = RPMI 5 mM glucose + 10% FBS, 1.71 µM
[20] = RPMI 5 mM glucose + 10% FBS, 5.12 µM
[21] = RPMI 5 mM glucose + 10% FBS, 15.4 µM
[22] = RPMI 5 mM glucose + 10% FBS, 46.1 µM
[23] = RPMI 5 mM glucose + 10% dialyzed FBS, 0.000781 µM
[24] = RPMI 5 mM glucose + 10% dialyzed FBS, 0.00234 µM
[25] = RPMI 5 mM glucose + 10% dialyzed FBS, 0.00702 µM
[26] = RPMI 5 mM glucose + 10% dialyzed FBS, 0.0211 µM
[27] = RPMI 5 mM glucose + 10% dialyzed FBS, 0.0632 µM
[28] = RPMI 5 mM glucose + 10% dialyzed FBS, 0.19 µM
[29] = RPMI 5 mM glucose + 10% dialyzed FBS, 0.569 µM
[30] = RPMI 5 mM glucose + 10% dialyzed FBS, 1.71 µM
[31] = RPMI 5 mM glucose + 10% dialyzed FBS, 5.12 µM
[32] = RPMI 5 mM glucose + 10% dialyzed FBS, 15.4 µM
[33] = RPMI 5 mM glucose + 10% dialyzed FBS, 46.1 µM

| SMILES | cell viability [1] [%] | cell viability [2] [%] | cell viability [3] [%] | cell viability [4] [%] | cell viability [5] [%] | cell viability [6] [%] | cell viability [7] [%] | cell viability [8] [%] | cell viability [9] [%] | cell viability [10] [%] | cell viability [11] [%] | cell viability [12] [%] | cell viability [13] [%] | cell viability [14] [%] | cell viability [15] [%] | cell viability [16] [%] | cell viability [17] [%] | cell viability [18] [%] | cell viability [19] [%] | cell viability [20] [%] | cell viability [21] [%] | cell viability [22] [%] | cell viability [23] [%] | cell viability [24] [%] | cell viability [25] [%] | cell viability [26] [%] | cell viability [27] [%] | cell viability [28] [%] | cell viability [29] [%] | cell viability [30] [%] | cell viability [31] [%] | cell viability [32] [%] | cell viability [33] [%] |
| --- | --- | --- | --- | --- | --- | --- | --- | --- | --- | --- | --- | --- | --- | --- | --- | --- | --- | --- | --- | --- | --- | --- | --- | --- | --- | --- | --- | --- | --- | --- | --- | --- | --- |
| Oc1ccc(C2CNCCc3c2cc(O)c(O)c3Cl)cc1 (stereo not given) | 91.8 | 106 | 93.7 | 106 | 107 | 101 | 85.3 | 106 | 115 | 103 | 115 | 86 | 90.1 | 81.7 | 96.5 | 93.6 | 80.7 | 90.7 | 96.3 | 85.8 | 90.3 | 87.4 | 84.1 | 95.9 | 98.2 | 95.6 | 99.9 | 94.3 | 95.7 | 93.4 | 95.2 | 101 | 88.5 |
| CN1C(=O)\C(=C/C2=C1N=C(NC3CCOCC3)N=C2)OC4=C(F)C=C(F)C=C4 | 105 | 107 | 105 | 101 | 119 | 100 | 91 | 96.4 | 58.2 | 89.2 | 16.4 | 95.4 | 83.2 | 88.4 | 90.6 | 94.1 | 87.2 | 87.2 | 95.2 | 79.2 | 84 | 23.3 | 86.7 | 97.1 | 104 | 89.2 | 83.5 | 87.1 | 95.5 | 91.4 | 76.7 | 86.3 | 26.4 |
| NC(=O)c1c(OCc2c(F)cc(Br)cc2F)nsc1NC(=O)NCCCCN1CCCC1 | 89.9 | 108 | 91.4 | 82.3 | 76.8 | 87.6 | 107 | 79.8 | 67.6 | 18.5 | 21.5 | 123 | 116 | 115 | 116 | 112 | 105 | 111 | 103 | 103 | 66.6 | 85.7 | – | – | – | – | – | – | – | – | – | – | – |
| COc1cc([S+](C)(=O)[O-])ccc1Nc1nc2ccc(-c3ccc(NC(=O)[C@H](C)c4ccc(F)cc4)cc3)cn2n1 | 104 | 120 | 139 | 146 | 157 | 137 | 139 | 99.3 | 109 | 101 | 100 | 106 | 129 | 122 | 131 | 134 | 123 | 124 | 92.4 | 101 | 94.9 | 97.2 | 114 | 117 | 123 | 130 | 120 | 136 | 129 | 92.7 | 96.3 | 96.1 | 88.8 |
| Cc1cc(-c2ccc(CC(=O)Nc3ccc(-c4cccnc4)cc3)cc2)ccn1 | – | – | – | – | – | – | – | – | – | – | – | 108 | 118 | 108 | 111 | 107 | 110 | 116 | 96.4 | 84.6 | 54.3 | 40.9 | 119 | 131 | 124 | 110 | 134 | 103 | 106 | 110 | 91.8 | 55.8 | 41.7 |
| CCC[S+](=O)([O-])Nc1ccc(F)c(C(=O)c2c[nH]c3ncc(-c4ccc(Cl)cc4)cc23)c1F | 124 | 112 | 113 | 116 | 143 | 132 | 108 | 99.7 | 108 | 116 | 93.2 | 101 | 113 | 112 | 103 | 117 | 113 | 106 | 120 | 112 | 111 | 98.9 | 113 | 116 | 112 | 129 | 109 | 112 | 121 | 107 | 108 | 112 | 94.5 |
| C[C@]12CCC(=O)C(O)=C1CC[C@@H]1[C@@H]2CC[C@]2(C)C(=O)CC[C@@H]12 | – | – | – | – | – | – | – | – | – | – | – | 123 | 114 | 105 | 123 | 129 | 110 | 128 | 104 | 107 | 98.9 | 95 | – | – | – | – | – | – | – | – | – | – | – |
| N[C@@H](Cc1cc(I)c(Oc2cc(I)c(O)c(I)c2)c(I)c1)C(=O)O | 119 | 109 | 105 | 103 | 111 | 109 | 125 | 94.5 | 112 | 104 | 97.4 | 92.9 | 105 | 107 | 100 | 101 | 97 | 108 | 105 | 93.6 | 112 | 84.8 | 109 | 116 | 113 | 113 | 94.1 | 95.5 | 96.9 | 98.9 | 94 | 96.8 | 92.6 |
